For test [1], the target named is T1, KRAS^G12C (Homo sapiens, UniProt P01116, C118S/C51S/C80L/G12C).
T1 construct: made in house
In words: Determination of kinact and KI by LC-MS occupancy over time. In kind it is binding. As to conditions: for k inact (maximum potential rate of KRAS^G12C inactivation) / Ki: 10 µM KRAS^G12C, 10-100 µM inhibitor, 0-180 min; for Ki: read-out: K I (binding constant of the reversible binding event). The protocol: (§1) 3.4 Covalent binding assay by mass spectrometry
(§2) The percentage of covalent adduct formation at KRAS G12C was determined by intact mass determination. To this end, 25 µM recombinant KRAS mutant (G12C , C51S, C80L, C118S) was incubated with 25 µM compound (1% v/v DMSO final concentration) in 50 mM Tris, pH 8.0, 50 mM NaCl at room temperature for 2 h. Reaction mixture (20 µL) was acidified by addi tion of 4% v/v TFA (4 µL). LC-MS analysis was performed using a Waters SYNAPT G2 -S quadrupole time -of-flight mass spectrometer connected to a Waters nanoA CQUITY UPLC system. Samples were loaded onto a 2.1 × 5 mm MassPrep C4 guard column (Waters) and desalted with a short gradient (3 min) of increasing concentration of acetonitrile at a flow rate of 100 µL/min. Spectra were analyzed by using MassLynx v4.1 software and deconvoluted with the MaxEnt1 algorithm. Percent conversion was determined by the ratio of signal intensities of […] and KRASG12C + inhibitor. […]
3.6 Determination of k inact and KI
The percentage of covalent adduct formation at KRASG12C was determined for compounds 1, 2 and 13 by intact mass determination. To this end, 25 µM of the same recombinant KRAS mutant as for the covalent binding assay (G12C, C51S, C80L, C118S) were incubated with 25 µM of compound (1% v/v final DMSO concentration) in 50 mM Tris, pH8, 50 mM NaCl at room temperature for 2 h. The reaction was acidified by adding 4 µL of 4% v/v TFA to 20 µL reaction […]
Liquid chromatography-mass spectrometry (LC-MS) analysis was performed using a Waters SYNAPT G2-S quadrupole time-of-flight mass spectrometer connected to a Waters nanoAcquity UPLC system. Samples were loaded on a 2.1 x 5 mm mass prep C4 guard column (Waters) and desalted with a short grad ient (3 min) of increasing concentrations of acetonitrile at a flow rate of 100 µL/min. Spectra were analyzed by using MassLynx v4.1 software and deconvoluted with the MaxEnt1 algorithm. Percent of conversion was determined by the ratio of signal intensiti es of apo-KRAS and KRAS + inhibitor.
The kinact / KI ratio was determined by measuring the total occupancy (% conversion) over time at different inhibitor concentrations. In detail, 10 µM KRASG12C were incubated in the same reaction buffer as above with 10 µM, 25 µM, 50 µM or 100 µM of inhibitor at different reaction times (0, 2, 20, 60 and 180 min), the reaction was quenched by adding 2 µL of 4% v/v TFA to 10 µL reaction volume and subsequently measured by LC -MS as described above. The observed occupancy percentage over time at a given inhibitor concentration was fit to the following equation using […]
% conversion = vi [1 − exp(−k ∗ t)]
The obtained kobs values were then plotted as a function of inhibitor concentration and fit to the […]
to yield the kinact and KI.[26]

The test system of test [2] is active RAS. In words: Cellular assay for RAS activation (G-LISA). The settings on record: 24 h treatment; read-out: Cellular IC50 (inhibition of active RAS formation). The format is cell-based. Here is the method:
SOS1CAT. All steps of the assay were performed at 20 °C. A volume of 2.5 µL of the KRASG12C working solution was added to all wells of the test plate using a Multidrop dispenser (Thermo LabSystems). After 180 min, 2.5 µL of the SOS1CAT working solution was added to all wells, except for the inhibitor control solution wells. After 30 min incubation, HTRF was measured.
In the KRASWT activation by SOS1cat assay, human SOS1CAT mediated loading of GST-KRASWT– GDP was quantified with a fluorescent GTP analogue. The assay was performed as described above for the KRASG12C activation. GST-KRASG12C was replaced by GST-KRASWT, used at a final […]
as §1
The percentage of covalent adduct formation at KRAS G12C was determined by intact mass determination. To this end, 25 µM recombinant KRAS mutant (G12C , C51S, C80L, C118S) was incubated with 25 µM compound (1% v/v DMSO final concentration) in 50 mM Tris, pH 8.0, 50 mM NaCl at room temperature for 2 h. Reaction mixture (20 µL) was acidified by addi tion of 4% v/v TFA (4 µL). […] Spectra were analyzed by using MassLynx v4.1 software and deconvoluted with the MaxEnt1 algorithm. Percent conversion was determined by the ratio of signal intensities of […] and KRASG12C + inhibitor. […]
Using the G-LISA Kit (Cytoskeleton BK131, RAS Activation Assay), 50000 cells are seeded in a 96 well plate for 72 h at 37 °C (10% FBS, DMEM/Ham's F-12, 2 mM L-Glutamine). […] Finally, the content of active R AS is measured by detecting the absorbance at 490 nm. […]
The percentage of covalent adduct formation at KRASG12C was determined for compounds 1, 2 and 13 by intact mass determination. […]
Liquid chromatography-mass spectrometry (LC-MS) analysis was performed using a Waters SYNAPT G2-S quadrupole time-of-flight mass spectrometer connected to a Waters nanoAcquity UPLC system. […] Spectra were analyzed by using MassLynx v4.1 software and deconvoluted with the MaxEnt1 algorithm. Percent of conversion was determined by the ratio of signal intensiti es of apo-KRAS and KRAS + inhibitor.

The target in test [3] is T2, KRAS^G12C (recombinant KRAS mutant G12C, C51S, C80L, C118S) (Homo sapiens, UniProt P01116, C118S/C51S/C80L/G12C).
T2 construct: made in house
In words: Covalent binding assay by mass spectrometry (intact mass, % covalent adduct). The settings on record: 25 µM protein, 25 µM compound, room temperature, 2 h. The protocol: One of the most synthetically accessible compounds, 1,6‐naphthyridin‐5(6H)‐one (1), was prepared (Table 1; Scheme S1). Structurally close to 1, isoquinolin‐1(2H)‐one 2 derivatives were also considered for the exploration of structure‐activity relationships (SAR). To measure the proportion of inhibitor reacting with Cys12 of the KRAS^G12C mutant, the bound/unbound protein ratio was quantified by mass spectrometry (MS). Then, the inhibition potency of these compounds towards KRAS^G12C was evaluated in biochemical assays measuring the activation of GDP‐bound KRAS^G12C or KRAS^WT by SOS1.19 […]
as §1, §2

In the case of `C=CC(=O)N1CCC(c2cc3ncc(-c4c(O)cccc4F)cc3c(=O)[nH]2)C1` (stereo not drawn) [Compound 1, 3-(2-Fluoro-6-hydroxyphenyl)-7-[1-(prop-2-enoyl)pyrrolidin-3-yl]-1,6-naphthyridin-5(6H)-one], in test [1], the “k inact/K I” value is 26.72 M⁻¹ s⁻¹, the “k inact (maximum potential rate of KRAS^G12C inactivation)” value turned out to be 0.00105 s⁻¹ and the Ki is 39.3 µM. For the same molecule, in test [2], the IC50 was more than 30 µM. For the same molecule, the “MS assay [% binding] (KRAS^G12C bound fraction)” value in test [3] came out at 80%.
The corresponding values for `C=CC(=O)N1CCC(c2cc3ccc(-c4c(O)cccc4F)cc3c(=O)[nH]2)C1` (stereo not drawn) [Compound 2, 7-(2-Fluoro-6-hydroxyphenyl)-3-[1-(prop-2-enoyl)pyrrolidin-3-yl]isoquinolin-1(2H)-one] are 55.05 M⁻¹ s⁻¹, 0.00024 s⁻¹, 4.4 µM, more than 30 µM and 35%.
The corresponding values for `C=CC(=O)N1CCC(c2cc3cnc(-c4c(O)cccc4F)cc3c(=O)[nH]2)C1` (stereo not drawn) [Compound 13, 7-(2-Fluoro-6-hydroxyphenyl)-3-[1-(prop-2-enoyl)pyrrolidin-3-yl]-2,6-naphthyridin-1(2H)-one] are 49.38 M⁻¹ s⁻¹, 0.00159 s⁻¹, 32.2 µM, 22 µM and 73%.

These data come from article PMC7318243, “Computationally Empowered Workflow Identifies Novel Covalent Allosteric Binders for KRAS^G12C” (Chemmedchem, 2020).
